The text below walks through data of ChEMBL document CHEMBL5465560, “Selectivity Literature for EUbOPEN Chemogenomic Library” (2024).

In assay [1] the target is Glycogen synthase kinase-3 alpha (Homo sapiens, UniProt P49840). Put plainly: Selectivity interaction (KinomeScan (DiscoverX)) EUB0001619a GSK3A. The note with it: at 1 µM.
The target of assay [2] is T1, Casein kinase I isoform alpha-like (Homo sapiens) (UniProt Q8N752).
T1 sequence (whole entry): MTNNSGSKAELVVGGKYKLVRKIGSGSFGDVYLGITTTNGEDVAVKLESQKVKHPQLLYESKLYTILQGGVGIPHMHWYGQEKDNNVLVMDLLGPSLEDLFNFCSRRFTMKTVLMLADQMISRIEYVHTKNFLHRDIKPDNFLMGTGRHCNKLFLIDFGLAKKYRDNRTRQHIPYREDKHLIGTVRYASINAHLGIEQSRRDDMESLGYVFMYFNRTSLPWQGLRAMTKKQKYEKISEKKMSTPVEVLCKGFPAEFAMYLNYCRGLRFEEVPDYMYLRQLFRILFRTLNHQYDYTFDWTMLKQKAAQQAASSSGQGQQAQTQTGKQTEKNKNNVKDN
The note with it: at 10 µM.

Assay [3] concerns the target DNA-dependent protein kinase catalytic subunit (Homo sapiens) (UniProt P78527). Put plainly: Selectivity interaction (ActivX KiNativ screen (kinase selectivity in THP-1 cell lysates)) EUB0000639a PRKDC. The class given is subcellular. The note with it: lysate, at 0.01 µM.
Assay [4] deals with T2, Tyrosine-protein kinase Tec (Homo sapiens) (UniProt P42680).
T2 sequence (whole entry): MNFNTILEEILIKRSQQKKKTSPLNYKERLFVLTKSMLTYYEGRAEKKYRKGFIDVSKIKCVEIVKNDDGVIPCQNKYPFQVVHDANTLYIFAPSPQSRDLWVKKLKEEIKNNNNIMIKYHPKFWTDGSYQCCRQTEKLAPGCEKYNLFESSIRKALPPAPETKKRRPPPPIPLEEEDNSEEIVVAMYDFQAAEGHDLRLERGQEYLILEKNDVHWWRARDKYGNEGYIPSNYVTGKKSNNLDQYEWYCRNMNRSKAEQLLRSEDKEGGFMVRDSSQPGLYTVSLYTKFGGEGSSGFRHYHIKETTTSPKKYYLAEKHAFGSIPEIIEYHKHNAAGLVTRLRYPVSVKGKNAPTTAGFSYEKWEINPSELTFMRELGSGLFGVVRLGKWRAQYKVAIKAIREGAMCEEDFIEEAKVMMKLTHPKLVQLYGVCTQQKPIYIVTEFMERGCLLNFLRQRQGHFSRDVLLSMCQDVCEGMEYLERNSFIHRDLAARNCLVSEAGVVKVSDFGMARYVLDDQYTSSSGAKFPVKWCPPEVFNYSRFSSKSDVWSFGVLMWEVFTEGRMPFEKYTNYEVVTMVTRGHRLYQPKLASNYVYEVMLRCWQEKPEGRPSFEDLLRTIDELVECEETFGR
The experiment in a line: Selectivity interaction (Kinase panel (Invitrogen)) EUB0000639a TEC. The note with it: at 200 nM.

The target of assay [5] is T3, Ephrin type-B receptor 3 (Homo sapiens) (UniProt P54753).
T3 sequence (whole entry): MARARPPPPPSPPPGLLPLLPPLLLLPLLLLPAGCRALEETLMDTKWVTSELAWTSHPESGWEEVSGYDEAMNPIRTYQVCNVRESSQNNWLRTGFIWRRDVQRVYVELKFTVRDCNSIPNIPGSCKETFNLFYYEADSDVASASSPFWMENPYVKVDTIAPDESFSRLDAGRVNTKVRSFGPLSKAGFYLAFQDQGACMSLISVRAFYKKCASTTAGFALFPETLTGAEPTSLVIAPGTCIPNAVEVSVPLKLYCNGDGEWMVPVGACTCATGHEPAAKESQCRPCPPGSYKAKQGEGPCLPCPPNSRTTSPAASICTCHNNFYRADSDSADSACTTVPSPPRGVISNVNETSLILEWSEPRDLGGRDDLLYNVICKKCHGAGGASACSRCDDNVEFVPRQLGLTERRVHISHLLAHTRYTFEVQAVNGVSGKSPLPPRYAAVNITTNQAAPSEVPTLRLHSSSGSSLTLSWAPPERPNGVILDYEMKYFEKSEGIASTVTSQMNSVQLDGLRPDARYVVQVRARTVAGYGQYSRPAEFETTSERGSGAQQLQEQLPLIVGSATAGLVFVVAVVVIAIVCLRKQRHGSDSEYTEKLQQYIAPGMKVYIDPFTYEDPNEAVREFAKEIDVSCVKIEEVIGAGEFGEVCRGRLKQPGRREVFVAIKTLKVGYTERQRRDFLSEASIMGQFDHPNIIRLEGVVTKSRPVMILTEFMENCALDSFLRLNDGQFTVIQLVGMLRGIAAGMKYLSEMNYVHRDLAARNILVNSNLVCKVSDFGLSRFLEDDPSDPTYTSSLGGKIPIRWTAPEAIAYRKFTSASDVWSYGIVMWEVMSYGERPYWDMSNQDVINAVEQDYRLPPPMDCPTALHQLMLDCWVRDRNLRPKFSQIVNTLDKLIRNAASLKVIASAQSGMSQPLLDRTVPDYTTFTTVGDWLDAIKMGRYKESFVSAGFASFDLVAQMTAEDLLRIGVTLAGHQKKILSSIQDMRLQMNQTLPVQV
Put plainly: Selectivity interaction (KinomeScan (DiscoverX)) EUB0000045b EPHB3.

Assay [6] addresses T4, Mitogen-activated protein kinase kinase kinase 3 (Homo sapiens) (UniProt Q99759).
T4 sequence (whole entry): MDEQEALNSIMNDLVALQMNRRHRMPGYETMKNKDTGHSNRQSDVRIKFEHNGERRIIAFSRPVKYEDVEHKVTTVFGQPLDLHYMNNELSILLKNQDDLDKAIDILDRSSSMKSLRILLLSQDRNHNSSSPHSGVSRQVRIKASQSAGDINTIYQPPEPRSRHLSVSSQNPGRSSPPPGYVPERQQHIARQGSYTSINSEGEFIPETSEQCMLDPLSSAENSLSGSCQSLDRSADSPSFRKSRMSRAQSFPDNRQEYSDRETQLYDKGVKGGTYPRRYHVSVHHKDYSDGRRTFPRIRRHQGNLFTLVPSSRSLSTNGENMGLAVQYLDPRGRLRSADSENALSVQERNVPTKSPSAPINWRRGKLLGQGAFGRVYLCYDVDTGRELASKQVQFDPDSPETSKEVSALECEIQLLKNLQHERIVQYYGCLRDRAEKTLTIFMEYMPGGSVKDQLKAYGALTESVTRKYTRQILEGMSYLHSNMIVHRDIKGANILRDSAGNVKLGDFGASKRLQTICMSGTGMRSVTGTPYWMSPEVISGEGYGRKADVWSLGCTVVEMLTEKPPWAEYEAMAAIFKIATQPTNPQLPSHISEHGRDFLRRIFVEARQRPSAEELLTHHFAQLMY
Put plainly: Selectivity interaction (KinomeScan (DiscoverX)) EUB0000618a MAP3K3. The note with it: at 10 µM.

For assay [7], the target named is RAF proto-oncogene serine/threonine-protein kinase (Homo sapiens) (UniProt P04049). Put plainly: Selectivity interaction (KinomeScan (DiscoverX)) EUB0000092b RAF1. The note with it: at 10 µM.
Assay [8] has as its target Vascular endothelial growth factor receptor 1 (Homo sapiens) (UniProt P17948). The experiment in a line: Selectivity interaction (KinomeScan (DiscoverX)) EUB0001079a FLT1. The note with it: at 1 µM.

Sequence of Glycogen synthase kinase-3 alpha (P49840 2-483 limits assumed): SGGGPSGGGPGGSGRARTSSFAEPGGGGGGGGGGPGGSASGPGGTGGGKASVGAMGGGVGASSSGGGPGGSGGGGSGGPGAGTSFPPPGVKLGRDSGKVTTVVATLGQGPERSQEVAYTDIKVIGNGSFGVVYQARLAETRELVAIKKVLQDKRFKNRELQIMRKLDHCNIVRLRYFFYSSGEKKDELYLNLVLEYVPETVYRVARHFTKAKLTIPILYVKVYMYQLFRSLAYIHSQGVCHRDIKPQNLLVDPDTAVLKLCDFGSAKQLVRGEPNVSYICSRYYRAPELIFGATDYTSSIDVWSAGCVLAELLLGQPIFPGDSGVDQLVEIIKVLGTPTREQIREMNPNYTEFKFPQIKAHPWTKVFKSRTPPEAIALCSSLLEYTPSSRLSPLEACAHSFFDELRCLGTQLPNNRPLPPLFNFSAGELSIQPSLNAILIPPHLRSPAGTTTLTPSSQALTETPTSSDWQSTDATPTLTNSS
Sequence of Vascular endothelial growth factor receptor 1 (Homo sapiens) (P17948 whole entry): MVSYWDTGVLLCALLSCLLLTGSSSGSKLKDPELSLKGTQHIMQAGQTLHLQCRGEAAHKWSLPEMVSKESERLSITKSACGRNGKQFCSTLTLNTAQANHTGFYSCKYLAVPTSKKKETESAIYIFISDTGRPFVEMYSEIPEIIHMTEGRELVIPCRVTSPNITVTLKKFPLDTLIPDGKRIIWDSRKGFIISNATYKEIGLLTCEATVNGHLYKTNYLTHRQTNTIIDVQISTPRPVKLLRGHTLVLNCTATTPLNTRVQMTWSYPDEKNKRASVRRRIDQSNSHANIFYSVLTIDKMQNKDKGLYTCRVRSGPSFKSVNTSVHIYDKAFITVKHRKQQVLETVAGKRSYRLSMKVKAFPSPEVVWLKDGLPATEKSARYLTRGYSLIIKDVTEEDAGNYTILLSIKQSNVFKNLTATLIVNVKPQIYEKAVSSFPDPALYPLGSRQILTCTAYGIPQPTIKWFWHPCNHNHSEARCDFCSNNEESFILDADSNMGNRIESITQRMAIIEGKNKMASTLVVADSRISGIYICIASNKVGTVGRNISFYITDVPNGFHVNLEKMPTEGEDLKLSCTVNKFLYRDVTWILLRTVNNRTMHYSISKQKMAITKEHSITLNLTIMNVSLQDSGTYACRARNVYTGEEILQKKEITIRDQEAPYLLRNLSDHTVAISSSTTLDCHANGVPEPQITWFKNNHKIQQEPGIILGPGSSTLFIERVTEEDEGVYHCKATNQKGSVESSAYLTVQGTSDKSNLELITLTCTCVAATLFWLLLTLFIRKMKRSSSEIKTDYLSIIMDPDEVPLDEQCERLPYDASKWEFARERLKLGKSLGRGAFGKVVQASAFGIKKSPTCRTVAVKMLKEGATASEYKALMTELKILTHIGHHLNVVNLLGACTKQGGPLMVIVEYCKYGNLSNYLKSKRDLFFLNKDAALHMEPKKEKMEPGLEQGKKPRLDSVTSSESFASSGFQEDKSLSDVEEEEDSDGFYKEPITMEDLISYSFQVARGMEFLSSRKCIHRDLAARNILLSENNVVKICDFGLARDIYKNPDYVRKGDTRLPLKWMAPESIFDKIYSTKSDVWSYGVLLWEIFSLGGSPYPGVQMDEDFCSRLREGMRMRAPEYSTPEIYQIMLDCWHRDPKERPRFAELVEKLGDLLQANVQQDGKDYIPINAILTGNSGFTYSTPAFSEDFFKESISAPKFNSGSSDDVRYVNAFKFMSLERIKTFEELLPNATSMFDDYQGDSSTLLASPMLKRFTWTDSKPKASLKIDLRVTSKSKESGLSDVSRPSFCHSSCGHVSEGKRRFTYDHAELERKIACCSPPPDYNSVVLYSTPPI
Sequence of RAF proto-oncogene serine/threonine-protein kinase (Homo sapiens) (P04049 whole entry): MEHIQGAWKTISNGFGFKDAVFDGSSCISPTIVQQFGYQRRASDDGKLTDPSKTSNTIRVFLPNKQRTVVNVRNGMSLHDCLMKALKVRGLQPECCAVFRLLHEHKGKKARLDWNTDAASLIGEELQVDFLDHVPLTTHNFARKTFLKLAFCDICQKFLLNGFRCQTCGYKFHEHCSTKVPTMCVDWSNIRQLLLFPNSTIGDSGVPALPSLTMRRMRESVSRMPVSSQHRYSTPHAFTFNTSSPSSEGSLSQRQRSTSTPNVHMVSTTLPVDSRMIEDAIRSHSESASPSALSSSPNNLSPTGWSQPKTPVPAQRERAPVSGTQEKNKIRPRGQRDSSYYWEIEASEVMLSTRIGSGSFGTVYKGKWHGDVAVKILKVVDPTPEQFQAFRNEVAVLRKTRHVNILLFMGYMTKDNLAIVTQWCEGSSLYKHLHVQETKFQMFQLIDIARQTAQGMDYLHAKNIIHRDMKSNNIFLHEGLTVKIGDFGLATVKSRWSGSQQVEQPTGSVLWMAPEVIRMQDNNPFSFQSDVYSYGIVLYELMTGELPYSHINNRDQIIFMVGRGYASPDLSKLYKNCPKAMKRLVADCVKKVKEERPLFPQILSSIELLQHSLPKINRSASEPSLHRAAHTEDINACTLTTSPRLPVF

In the case of `N#Cc1cccc(-c2c[nH]c3ncnc(N4CCOCC4)c23)c1`, the % of control in assay [1] is 100%.

In assay [2], `Cc1cc([C@@H](C)Nc2ccccc2C(=O)O)c2nc(N3CCOCC3)cc(=O)n2c1` [AZD-6482] registered a % of control of 100%.

For `CC[C@@H]1[C@H](F)C(=O)N[C@@H]1COc1nccc2cc(C(N)=O)c(OC)cc12` [ZIMLOVISERTIB], the figures for the % of inhibition in assay [3] and in assay [4] were -2.2% and -4.01%, respectively.

With `C=CC(=O)Nc1cc(-n2c(=O)ccc3cnc4ccc(-c5ccc(NS(C)(=O)=O)cc5)cc4c32)ccc1C`, the % of control was determined as 83% in assay [5] (at 1 µM) and 88% in assay [5] (at 10 µM).

The compound `O[C@H]1CC[C@H](Nc2ncc3nc(Nc4c(F)cc(F)cc4F)n([C@H]4CCOC4)c3n2)CC1` displayed a % of control in assay [6] of 83%.

Compound `CCC(=O)N1CCN(c2ccc(-n3c(=O)ccc4cnc5ccc(-c6cnc7ccccc7c6)cc5c43)cc2C(F)(F)F)CC1` yielded a % of control in assay [7] of 48%.

In the case of `Nc1cnc(N2CCc3cc(S(=O)(=O)Nc4c(F)cc(Cl)cc4F)cc(N4CCCC4=O)c32)nc1` [TP-020n], in assay [8], the % of control was 93%.
